Source: US20220184172A1, “AMPK/CASPASE-6 AXIS CONTROLS LIVER DAMAGE IN NONALCOHOLIC STEATOHEPATITIS” (The Regents of the University of California, priority 2019, published 2022)
*: point of attachment. Cbz = O=C(OCc1ccccc1)*; CH2F = FC*

Key:
[1] = system: procaspase-6 cleavage in primary hepatocytes; assay: Procaspase-6 cleavage induced by TNFα and CHX in primary hepatocytes (IB); assay type: cell-based, mice; settings: 10 μM pretreatment 1 hr, then 30 μg/ml CHX and 50 ng/ml TNFα 2 hrs
From the text: FIGS. 5A-5K. AMPK phosphorylates caspase-6 to inhibit its cleavage and activation. FIG. 5A. […] IB analysis of cell lysates. n=3. Mean±SD. *, P<0.05, two-way ANOVA. FIG. 5B. […] Cell lysates were subject to caspase-6 activity assay. Mean±SD. *, P<0.05. FIG. 5C. Caspase-6 Ser^257 locates within AMPK substrate motif. FIG. 5C. discloses SEQ ID NOS 57-63, respectively, in order of appearance. FIG. 5D. In vitro kinase assay using recombinant caspase-6, and recombinant AMPKα1β1γ1 or AMPKα2β1γ1 active kinase. FIG. 5E. Alignment of caspase-6 sequence. FIG. 5E. discloses SEQ ID NOS 64-67, respectively, in order of appearance. FIG. 5F. HEK293T cells overexpressing caspase-6-myc WT, S^257A, S^257D or S^257E mutant were treated with 10 μg/ml CHX and 25 ng/ml TNFα for 2 hrs. IB analysis of cell lysates. FIGS. 5G-5J. C57BL/6J mice were fed CD-HFD for 6 weeks, followed by intraperitoneally injection of 25 mg/kg A-769662 or vehicle daily for 2 weeks while continuous CD-HI-D. Mice were sacrificed 6 hrs after last injection. FIG. 5G. IB analysis of liver lysates. n=5. FIG. 5H. Liver lysates were subject to caspase-6 activity assay. n=7. FIG. 5I. Liver sections stained as indicated therein (aCasp6 and DAPI); in the merged image sections, the different stains correspond to the grayscale shades as indicated in the single stained images to the left. Scale bar=50 μm. […] Quantification of aCasp6 staining per field in FIG. 5I. n=7. […]

[2] = system: cleaved caspase-3 and -7 in primary hepatocytes; assay: Caspase cascade after CHX plus TNFα and medium change in primary hepatocytes (IB); assay type: cell-based, mice; settings: 25 μM pretreatment 1 hr, CHX and TNFα 2 hrs, medium changed for 4 hrs
Procedure: FIGS. 16A-16D. Caspase-6 sustain activation of caspase cascade to induce apoptosis. FIG. 16A. HepG2 cells transfected with scrambled RNA or caspase-6 siRNA were treated with vehicle or 300 μg/ml CHX and 50 ng/ml TNFα for 20 hrs. Viability was measured by CCK-8 assay. Data are shown as mean±SD. *, P<0.05, two-way ANOVA. FIG. 16B. HepG2 cells transfected with scrambled RNA or Caspase-6 siRNA were treated with vehicle or 30 μg/ml CHX and 50 ng/ml TNFα for 2 hrs. Medium was changed to remove treatment. Cells were harvested at indicated time points. Cell lysates were subject to IB analysis. FIG. 16C. Isolated primary hepatocytes were pretreated with 25 μM Z-VEID-FMK (VEID) (SEQ ID NO: 71) for 1 hr and treated with 30 μg/ml CHX and 50 ng/ml TNFα for 2 hrs. Medium was changed to remove treatment for 4 hrs. Cell lysates were subject to IB analysis. FIG. 16D. Proposed model for roles of AMPK/caspase-6 axis in the regulation of NASH-associated liver damage. […]
Western blot was performed as previously described(11). […] Supernatants were collected and analyzed with BCA (Thermo Scientific) to quantify protein content. […] Individual proteins were detected with specific antibodies and visualized on film using horseradish peroxidase-conjugated secondary antibodies (Fisher Scientific) and SuperSignal West Pico PLUS Chemilunminescent Substrate (Thermo Scientific).

[3] = system: CD-HFD-fed Flox and LAKO mice; assay: Caspase-6 inhibitor Z-VEID-FMK in CD-HFD-fed Flox and LAKO mice; assay type: in vivo
From the text: FIG. 4A. […] Scale bar=50 μm. FIG. 4B. […] FIG. 4F. […] Scale bar=100 μm. FIG. 4G. […] Scale bar=50 μm.
FIG. 6A. […] FIG. 6B. […] FIG. 6C. […] FIG. 6D. […] FIG. 6E. […] FIG. 6F.
FIGS. 14A-14G. […] FIG. 14A. […] Scale bar=100 μm.

[4] = both Flox and LAKO mice, 5 mg/kg i.p. every other day for two weeks

procaspase-6 cleavage caused by TNFα and CHX [1] | cleaved caspase-3 and -7 [2] | Compound | difference in liver damage between Flox and LAKO mice ([3]; 5 mg/kg i.p. every other day for two weeks) | cytosolic cytochrome c (liver fractions, IB) ([3]; both Flox and LAKO mice, 5 mg/kg i.p. every other day for 2 weeks) | liver fibrosis (Sirius red fibrosis area, liver hydroxyproline) [3, 4] | number of apoptotic hepatocytes (TUNEL) [3, 4] | serum ALT activity [3, 4]
largely attenuated | – | COC[C@@H]1CCCN1S(=O)(=O)c1ccc2c(c1)C(=O)C(=O)N2 [caspase-3 and -7 inhibitor] | – | – | – | – | –
– | significant decrease | Z-VEID-FMK (Cbz-VEID-CH2F) | abrogated | decreased | reduced | significantly reduced | decreased
